Test results reported in patent US20240101563A1, “NOVEL COMPOUNDS” (AC Immune SA, priority 2022, published 2024).
Where a name gives a salt, the structure may show the parent alone.

Experiments:
[1] = tested on: NLRP3 inflammasome pathway; assay: NLRP3 inflammasome pathway activation assay, MSU stimulation, IL-1β HTRF; type: cell-based; conditions: read-out: IC50 Human monocyte-like cells MSU
Method: (§1) The following assays were used to determine the inhibitory activity of test compounds on the NLRP3 inflammasome pathway using common stimuli Nigericin (Invivogen) or monosodium urate crystals (MSU) (Invivogen).
(§2) Human monocyte-like cells were cultured in RPMI-1640 Glutamax medium supplemented with 10% heat inactivated FBS (Fetal Bovine Serum) and 50 U/mL penicillin-streptomycin (Life Technologies).
(§3) Human monocyte-like cells were seeded at 25000 per well in a 384-well plate and were differentiated overnight into macrophages with 10 ng/mL PMA (Phorbol Myristate Acetate). The following day, medium containing 10 ng/mL LPS (Lipopolysaccharide) was added. After 3 hours of LPS priming, concentrations of test compound in the range from […] were added 30 min prior to NLRP3 inflammasome pathway stimulation with Nigericin 3.75 μM or MSU 200 μg/mL for 3 h.
(§4) For IL-1p quantification, supernatants were analyzed using HTRF kit according to the manufacturer's instructions (Cisbio 62HIL1BPEH). Briefly, in a 384-well ProxiPlate™ microplate, 8 μl of sample was mixed, with 5 μl of Anti-IL1β Cryptate antibody (40×) and Anti-IL1β XL antibody (40×). Then, incubated overnight at RT. Reading was done using an EnVision Reader (PerkinElmer).
(§5) IC50 (concentration corresponding to 50% inhibition) were determined using GraphPad Prism 9.

[2] = tested on: NLRP3 inflammasome pathway; assay: NLRP3 inflammasome pathway activation assay, Nigericin stimulation, IL-1β HTRF; type: cell-based; conditions: Homo sapiens, 3 h, Table 7; PMA-differentiated, LPS-primed cells; Nigericin 3.75 μM for 3 h; IL-1β release; read-out: IC50 Human monocyte-like cells Nigericin
Method: as §1, §2, §3, §4, §5

[3] = Homo sapiens, 3 h, Table 7, PMA-differentiated, LPS-primed cells, MSU 200 μg/mL for 3 h, IL-1β release
[4] = Table 7, PMA-differentiated, LPS-primed cells, MSU 200 μg/mL for 3 h, IL-1β release

SMILES | IC50 [1, 3] | also measured
COc1ccc2c(n1)nc(-c1c(C)cc(Cl)cc1O)n2C [Example 29, 5-chloro-2-(5-methoxy-1-methyl-1H-imidazo[4,5-b]pyridin-2-yl)-3-methylphenol] | < 100 nM | IC50 [2]: 100 to 1000 nM
COc1ccc2c(n1)nc(-c1c(C)cc(C(F)(F)F)cc1O)n2C [Example 23] | < 100 nM | IC50 [2]: 100 to 1000 nM
Cc1cc(C(F)(F)F)cc(O)c1-c1nc2nc(N[C@H]3CCCC[C@@H]3O)ccc2n1C (single isomer, unassigned) [Example 20, 2-(5-((2-hydroxycyclohexyl)amino)-1-methyl-1H-imidazo[4,5-b]pyridin-2-yl)-3-methyl-5-(trifluoromethyl)phenol] | 100 to 1000 nM | IC50 [2]: > 1000 nM
COc1ccc2c(n1)nc(-c1ccc(C(F)(F)F)cc1O)n2C [Example 24, 2-(5-methoxy-1-methyl-1H-imidazo[4,5-b]pyridin-2-yl)-5-(trifluoromethyl)phenol] | 100 to 1000 nM | IC50 [2]: < 100 nM
Cc1cc(Cl)cc(O)c1-c1nc2nc(N3CCC(C)(O)C3)cnc2n1C (single isomer, unassigned) [Example 86B] | – | IC50 [1, 4]: < 100 nM
CC(C)n1c(-c2ccc(C(F)(F)F)cc2O)nc2nc(N[C@@H]3CCCN(C)C3)ccc21 [Example 13, (R)-2-(1-isopropyl-5-((1-methylpiperidin-3-yl)amino)-1H-imidazo[4,5-b]pyridin-2-yl)-5-(trifluoromethyl)phenol] | 100 to 1000 nM | –
Oc1cc(C(F)(F)F)ccc1-n1cc2ccc(OC(F)F)nc2n1 [Example 44, 2-[6-(difluoromethoxy)pyrazolo[3,4-b]pyridin-2-yl]-5-(trifluoromethyl)phenol] | – | IC50 ([1]; Homo sapiens, 3 h): 100 to 1000 nM
Cc1cc(C(F)(F)F)cc(O)c1-c1nc2nc(N[C@@H]3CCC[C@@H](O)C3)ccc2n1C (single isomer, unassigned) [Example 21, 2-(5-((3-hydroxycyclohexyl)amino)-1-methyl-1H-imidazo[4,5-b]pyridin-2-yl)-3-methyl-5-(trifluoromethyl)phenol] | 100 to 1000 nM | –
Cc1cc(Cl)cc(O)c1-c1nc2nc(OC3CC(F)(F)C3)ccc2n1C [Example 39, 5-chloro-2-(5-(3,3-difluorocyclobutoxy)-1-methyl-1H-imidazo[4,5-b]pyridin-2-yl)-3-methylphenol] | – | IC50 ([1]; Homo sapiens, 3 h): 100 to 1000 nM
CCn1c(-c2ccc(C(F)(F)F)cc2O)nc2nc(N[C@@H]3CCCN(C)C3)ccc21 [Example 12, (R)-2-(1-ethyl-5-((1-methylpiperidin-3-yl)amino)-1H-imidazo[4,5-b]pyridin-2-yl)-5-(trifluoromethyl)phenol] | 100 to 1000 nM | –
Cn1c(-c2ccc(C(F)(F)F)cc2O)nc2nc(O[C@H]3CC[C@H](O)C3)ccc21 (single isomer, unassigned) [Example 37B, trans-2-(5-((3-hydroxycyclopentyl)oxy)-1-methyl-1H-imidazo[4,5-b]pyridin-2-yl)-5-(trifluoromethyl)phenol] | – | IC50 [1, 4]: 100 to 1000 nM
Cc1cc(C(F)(F)F)cc(O)c1-c1nc2nc(NC3CCN(C)C3)ccc2n1C (single isomer, unassigned) [Example 18A, 3-methyl-2-(1-methyl-5-((1-methylpyrrolidin-3-yl)amino)-1H-imidazo[4,5-b]pyridin-2-yl)-5-(trifluoromethyl)phenol] | < 100 nM | –
CN1CCC[C@@H](Nc2ccc3cn(-c4ccc(C(F)(F)F)cc4O)nc3n2)C1 [Example 40, (R)-2-(6-((1-methylpiperidin-3-yl)amino)-2H-pyrazolo[3,4-b]pyridin-2-yl)-5-(trifluoromethyl)phenol formate] | < 100 nM | –
Cc1cc(C(F)(F)F)cc(O)c1-c1nc2nc(OCCO)ccc2n1C(C)C [Example 33, 2-(5-(2-hydroxyethoxy)-1-isopropyl-1H-imidazo[4,5-b]pyridin-2-yl)-3-methyl-5-(trifluoromethyl)phenol] | 100 to 1000 nM | –
Cc1cc(C(F)(F)F)cc(O)c1-c1nc2nc(N3CCC(C)(O)CC3)cnc2n1C [Example 75, 1-[2-[2-hydroxy-6-methyl-4-(trifluoromethyl)phenyl]-1-methyl-imidazo[4,5-b]pyrazin-5-yl]-4-methyl-piperidin-4-ol] | – | IC50 ([1]; Homo sapiens, 3 h): 100 to 1000 nM
Cc1cc(C(F)(F)F)cc(O)c1-c1nc2nc(O[C@@H]3CCN(C)C3)ccc2n1C [Example 28, (R)-3-methyl-2-(1-methyl-5-((1-methylpyrrolidin-3-yl)oxy)-1H-imidazo[4,5-b]pyridin-2-yl)-5-(trifluoromethyl)phenol] | < 100 nM | –
Cc1cc(C(F)(F)F)cc(O)c1-c1nc2nc(N[C@@H]3CCN(C)C3)ccc2n1C(C)C [Example 10B, (R)-2-(1-isopropyl-5-((1-methylpyrrolidin-3-yl)amino)-1H-imidazo[4,5-b]pyridin-2-yl)-3-methyl-5-(trifluoromethyl)phenol] | < 100 nM | –

The next lines start with results.

IC50 [1, 3] | SMILES | also measured
< 100 nM | Cc1cc(C(F)(F)F)cc(O)c1-c1nc2nc(N(C)C)c(CO)cc2n1C [Example 67, 2-[5-(dimethylamino)-6-(hydroxymethyl)-1-methyl-imidazo[4,5-b]pyridin-2-yl]-3-methyl-5-(trifluoromethyl)phenol] | –
100 to 1000 nM | COc1nc2nc(-c3c(C)cc(C(F)(F)F)cc3O)n(C)c2cc1C(C)(C)O [Example 57, 2-[6-(1-hydroxy-1-methyl-ethyl)-5-methoxy-1-methyl-imidazo[4,5-b]pyridin-2-yl]-3-methyl-5-(trifluoromethyl)phenol] | –
< 100 nM | Cc1cc(Cl)cc(O)c1-c1nc2nc(N[C@@H]3CCN(C)C3)c(F)cc2n1C [Example 47, (R)-5-chloro-2-(6-fluoro-1-methyl-5-((1-methylpyrrolidin-3-yl)amino)-1H-imidazo[4,5-b]pyridin-2-yl)-3-methylphenol formate Salt] | –
100 to 1000 nM | Cn1c(-c2ccc(C(F)(F)F)cc2O)nc2nc(N[C@@H]3CCC[C@@H](O)C3)ccc21 (relative stereo) [Example 22A, 2-(5-((3-hydroxycyclohexyl)amino)-1-methyl-1H-imidazo[4,5-b]pyridin-2-yl)-5-(trifluoromethyl)phenol] | –
< 100 nM | Cc1cc(Cl)cc(O)c1-c1nc2nc(N3CCC(C)(O)CC3)cnc2n1C [Example 80, 1-[2-(4-chloro-2-hydroxy-6-methyl-phenyl)-1-methyl-imidazo[4,5-b]pyrazin-5-yl]-4-methyl-piperidin-4-ol] | –
100 to 1000 nM | Cn1c(-c2ccc(C(F)(F)F)cc2O)nc2nc(NCC3(O)COC3)ccc21 [Example 54, 3-(((2-(2-hydroxy-4-(trifluoromethyl)phenyl)-1-methyl-1H-imidazo[4,5-b]pyridin-5-yl)amino)methyl)oxetan-3-ol] | –
< 100 nM | Cc1cc(C(F)(F)F)cc(O)c1-c1nc2nc(N3CCOCC3)cnc2n1C [Example 61, 3-methyl-2-(1-methyl-5-morpholino-1H-imidazo[4,5-b]pyrazin-2-yl)-5-(trifluoromethyl)phenol] | –
100 to 1000 nM | Cc1cc(Cl)cc(O)c1-c1nc2nc(NC3CN(C)CC3(F)F)ccc2n1C (stereo not drawn) [Example 62, 5-chloro-2-(5-((4,4-difluoro-1-methylpyrrolidin-3-yl)amino)-1-methyl-1H-imidazo[4,5-b]pyridin-2-yl)-3-methylphenol HCl Salt] | –
100 to 1000 nM | COc1ccc2c(n1)nc(-c1c(C)cc(Cl)cc1O)n2C(C)C [Example 31, 5-chloro-2-(1-isopropyl-5-methoxy-1H-imidazo[4,5-b]pyridin-2-yl)-3-methylphenol] | –
